According to publication PMC10892423 (Pharmaceutics, 2024):

Legend:
Type in all cases: biochemical
NDM-1 = molecular target: T1, NDM-1 (Klebsiella pneumoniae, UniProt C7C422); assay: β-lactamase inhibition, imipenem hydrolysis; settings: imipenem substrate; read-out: β-Lactamases, IC50 NDM-1
T1 construct: purchased RayBiotech, Inc. 230-00554
From the text: (§1) Recombinant AmpC from Escherichia coli was produced according to a previously reported protocol. KPC-2 and NDM-1 […] were purchased from LifeSpan Biosciences, Inc. (Lynnwood, WA, USA) (LS-G26598) and RayBiotech, Inc. (Peachtree Corners, GA, USA) (230-00554), respectively. Genes encoding OXA-48 (residues 23–265) and VIM-2 (residues 27–266) were custom-synthesized (Bioneer Inc., Seoul, Republic of Korea) and expressed as previously described. The β-lactamase inhibitory activity of the title compounds was then determined according to the previously reported methods. Briefly, equal volumes (100 μL) of the title compounds (70–0.1 μM in PBS) and diluted enzyme stock were mixed (final concentration 2% of DMSO in 200 μL) in 96-well plates, which were then incubated at 37 °C for 20 min. The incubated mixture was added to each well containing substrates (nitrocefin for AmpC, KPC-2, OXA-48, and VIM-2; and imipenem for NDM-1) of final concentrations of 70 μM for nitrocefin and 100 μM for imipenem. Substrate hydrolysis was monitored at 486 nm (nitrocefin) or 300 nm (imipenem) for 15 min, using a Cytation 5 imaging multimode reader (BioTek Instruments Inc., Winooski, VT, USA). At the plateau level of hydrolysis, the corresponding rates of hydrolysis were compared to those obtained without inhibitors (100%) to determine the percentage of enzyme inhibition at each concentration of the title compounds. The IC50 values of the compounds were derived from sigmoidal dose–response curves, using GraphPad Prism 5 (GraphPad Software, Boston, MA, USA).

KPC-2 = molecular target: T2, KPC-2 (Klebsiella pneumoniae, UniProt Q9F663); assay: β-lactamase inhibition, nitrocefin hydrolysis; settings: nitrocefin substrate; read-out: β-Lactamases, IC50 KPC-2
T2 construct: purchased LifeSpan Biosciences, Inc. LS-G26598
From the text: as §1

AmpC = molecular target: T3, AmpC (Escherichia coli, UniProt P00811); assay: β-lactamase inhibition, nitrocefin hydrolysis
T3 construct: made in house
From the text: as §1

OXA-48 = molecular target: T4, OXA-48 (Klebsiella pneumoniae, UniProt Q6XEC0); assay: β-lactamase inhibition, nitrocefin hydrolysis; settings: nitrocefin substrate; read-out: β-Lactamases, IC50 OXA-48
T4 construct: Genes encoding OXA-48 (residues 23–265) and VIM-2 (residues 27–266) were custom-synthesized; made in house
From the text: as §1

VIM-2 = molecular target: T5, VIM-2 (Escherichia coli, UniProt Q5U7L7); assay: β-lactamase inhibition, nitrocefin hydrolysis; settings: nitrocefin substrate; read-out: β-Lactamases, IC50 VIM-2
T5 construct: Genes encoding OXA-48 (residues 23–265) and VIM-2 (residues 27–266) were custom-synthesized; made in house
From the text: as §1

T3 sequence (P00811 20-377): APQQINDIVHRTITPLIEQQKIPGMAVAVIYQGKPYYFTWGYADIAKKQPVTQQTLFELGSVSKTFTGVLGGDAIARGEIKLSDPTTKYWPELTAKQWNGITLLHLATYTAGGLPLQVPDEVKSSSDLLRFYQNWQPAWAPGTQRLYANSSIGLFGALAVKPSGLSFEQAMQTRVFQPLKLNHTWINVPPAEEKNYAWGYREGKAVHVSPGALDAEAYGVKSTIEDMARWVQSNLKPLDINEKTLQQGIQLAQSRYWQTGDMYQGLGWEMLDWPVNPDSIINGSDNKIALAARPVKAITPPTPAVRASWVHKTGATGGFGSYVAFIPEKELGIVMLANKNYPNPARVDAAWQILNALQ
T2 sequence (Q9F663 25-293, looked up): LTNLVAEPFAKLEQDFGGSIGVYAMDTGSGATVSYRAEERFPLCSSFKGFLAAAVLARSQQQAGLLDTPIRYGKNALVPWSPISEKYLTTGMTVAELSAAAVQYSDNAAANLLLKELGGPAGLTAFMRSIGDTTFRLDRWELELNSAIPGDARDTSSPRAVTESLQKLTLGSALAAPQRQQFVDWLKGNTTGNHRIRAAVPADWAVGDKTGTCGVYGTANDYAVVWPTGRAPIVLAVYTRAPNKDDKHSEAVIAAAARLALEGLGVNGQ
T1 sequence (C7C422 29-270, looked up, species assumed): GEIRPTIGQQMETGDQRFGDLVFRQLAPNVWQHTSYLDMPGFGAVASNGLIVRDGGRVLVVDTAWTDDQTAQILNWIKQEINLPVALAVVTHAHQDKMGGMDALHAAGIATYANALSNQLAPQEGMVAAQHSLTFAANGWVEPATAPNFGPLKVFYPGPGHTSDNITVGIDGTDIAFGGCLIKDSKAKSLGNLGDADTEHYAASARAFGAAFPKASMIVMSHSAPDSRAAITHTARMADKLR
T4 sequence (Q6XEC0 23-265 limits assumed): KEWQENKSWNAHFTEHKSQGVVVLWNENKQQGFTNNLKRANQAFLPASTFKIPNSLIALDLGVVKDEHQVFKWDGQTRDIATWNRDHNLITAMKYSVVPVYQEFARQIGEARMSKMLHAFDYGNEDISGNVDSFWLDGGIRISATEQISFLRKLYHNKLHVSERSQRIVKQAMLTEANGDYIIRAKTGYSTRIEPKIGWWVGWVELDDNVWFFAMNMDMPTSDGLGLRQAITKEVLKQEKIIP

SMILES: O=c1c(OCCN2CCOCC2)c(-c2ccc(F)c(F)c2)oc2cc(O)cc(O)c12 [Compound 20]
- IC50 (NDM-1): > 50 µM
- IC50 (KPC-2): > 50 µM
- IC50 (AmpC): > 50 µM
- IC50 (OXA-48): > 100 µM
- IC50 (VIM-2): > 100 µM

SMILES: CN1CCCC1CCOc1c(-c2ccc(F)c(F)c2)oc2cc(O)cc(O)c2c1=O (stereo not drawn) [Compound 21]
- IC50 (NDM-1): > 50 µM
- IC50 (KPC-2): > 50 µM
- IC50 (AmpC): > 50 µM
- IC50 (OXA-48): > 100 µM
- IC50 (VIM-2): > 100 µM

SMILES: O=c1c(OCCC(F)(F)F)c(-c2ccc(F)c(F)c2)oc2cc(O)cc(O)c12 [Compound 22]
- IC50 (NDM-1): > 50 µM
- IC50 (KPC-2): > 50 µM
- IC50 (AmpC): > 50 µM
- IC50 (OXA-48): 39.8 µM
- IC50 (VIM-2): > 100 µM

SMILES: CC(C)CCOc1c(-c2ccc(F)c(F)c2)oc2cc(O)cc(O)c2c1=O [Compound 24]
- IC50 (NDM-1): > 50 µM
- IC50 (KPC-2): 39.4 µM
- IC50 (AmpC): > 50 µM
- IC50 (OXA-48): 19.1 µM
- IC50 (VIM-2): 42.1 µM

SMILES: O=c1c(OCCC2CC2)c(-c2ccc(F)c(F)c2)oc2cc(O)cc(O)c12 [Compound 25]
- IC50 (NDM-1): 22.7 µM
- IC50 (KPC-2): 22.8 µM
- IC50 (AmpC): > 50 µM
- IC50 (OXA-48): 11.4 µM
- IC50 (VIM-2): 13.9 µM

SMILES: O=c1c(OCC2CCCC2)c(-c2ccc(F)c(F)c2)oc2cc(O)cc(O)c12 [Compound 28]
- IC50 (NDM-1): 21.8 µM
- IC50 (KPC-2): 40.8 µM
- IC50 (AmpC): > 50 µM
- IC50 (OXA-48): 9.2 µM
- IC50 (VIM-2): 7.8 µM

SMILES: O=c1c(OCCCC2CCCC2)c(-c2ccc(F)c(F)c2)oc2cc(O)cc(O)c12 [Compound 29]
- IC50 (NDM-1): 26.7 µM
- IC50 (KPC-2): 28.3 µM
- IC50 (AmpC): > 50 µM
- IC50 (OXA-48): 5.5 µM
- IC50 (VIM-2): 5.1 µM

SMILES: O=c1c(OCCC2CCOCC2)c(-c2ccc(F)c(F)c2)oc2cc(O)cc(O)c12 [Compound 30]
- IC50 (NDM-1): > 50 µM
- IC50 (KPC-2): > 50 µM
- IC50 (AmpC): > 50 µM
- IC50 (OXA-48): 35.9 µM
- IC50 (VIM-2): > 100 µM

SMILES: O=c1c(OCCC2CCNCC2)c(-c2ccc(F)c(F)c2)oc2cc(O)cc(O)c12 [Compound 31]
- IC50 (NDM-1): > 50 µM
- IC50 (KPC-2): > 50 µM
- IC50 (AmpC): > 50 µM
- IC50 (OXA-48): > 100 µM
- IC50 (VIM-2): > 100 µM
